“Also recorded” adds a separate entry of the source.
Tests used:
[1] = test system: Ndufs4(KO) mouse model of LS; assay: Survival studies and overall disease course in Ndufs4(KO) mice; assay type: in vivo; settings: for impact on disease (overall) / disease or survival: Ndufs4(KO) mice; for survival: Ndufs4(KO) mice vs untreated
Method: (§1) Ndufs4(+/−) mice were bred to produce Ndufs4(KO) (Ndufs4(−/−)) offspring. Mice were weaned at 20-21 days of age. Ndufs4(KO) animals were housed with a minimum of one control littermate for warmth and stimulation. Mice were weighed, and health assessed, a minimum of 3 times per week, every other day (daily for IP injected mice, see herein). Where longitudinal blood point-of-care data was collected, this was performed during these health checks. Wetted chow in a dish on the bottom of each cage, and in-cage water bottles, were provided to all cages housing Ndufs4(KO) mice following the onset of disease so that the ability to find or reach food or water was not a limiting factor for survival.
Doses of each drug was based on published data for use in animals. […] Blood and tissue concentrations reached biologically relevant levels for each of the tested inhibitors.
Pharmacologic interventions and chow formulation. Standard mouse chow was ground to a power and mixed with drugs at the doses desired (see FIGS. 4A-4L). 300 mL of 1% agar melted in sterile water was added per kilogram of powdered chow and the mixture was pelleted and baked at 37° C. for 3-5 hours to dry. Pellets were then stored at 4° C. for short term (up to 90 days) or −20° C. for long-term (up to 6 months) storage. It was previously shown that this processing had no impact on animal health or survival (Johnson et al. Front Genet. 2015; 6:247). […]
To determine whether the benefits of mTOR inhibition in Ndufs4(KO) model result from disruption of PI3K mediated signaling, animals were treated from weaning (post-natal day 21, P21) with potent, orally available, isoform specific inhibitors of the catalytic subunits of PI3K: BYL719, GSK2636771, CAL-101, and IPI-549, inhibitors of p110α, p110β, p110δ, and p110γ, respectively.

Ndufs4(KO) mice [2] = assay: Longitudinal assessment of neurological disease symptoms (clasping, ataxia, circling); assay type: in vivo, mouse; settings: Ndufs4(KO) mice vs untreated
Method: Longitudinal assessments of neurological disease symptoms. Clasping, ataxia, and circling were assessed by visual scoring, as previously described. As disease progresses in the Ndufs4(KO) mice animals display intermittent/transient improvement of symptoms. […] For observational assessments, lab-wide quality control discussions occurred frequently to ensure consistency between technicians/researchers. Technicians contributed equally to each treatment group to minimize any potential bias between individuals.

Ndufs4(KO) mice [3] = assay: Rotarod assay; assay type: in vivo, mouse; settings: latency to fall up to 10 min, 6 rpm
Method: Rotarod and rotarod seizures. Rotarod assays were performed using a Med Associates Inc. (Fairfax, VT) ENV-571M single lane rotarod with a black mat installed in the floor of the lane to reduce visibility of the bottom. Assays were performed by placing animals onto an already rotating rod and timing latency to fall, with a steady rotation speed set to 6 rpm (controlled by attached laptop and Med Associates software). The maximum time of each trial was 10 min, with the trial ending at that time if mice were still on the rotarod. For each assay, three trials were performed, with a minimum of 5 min between each assay. The best of the three trials was reported for the rotarod data. As detailed in the text and figure legends, rotarod was performed each 10 days of age from P30; mice in a given age group were the reported age +/−1 day.

Ndufs4(KO) mice [4] = assay: Body weight, growth and cachexia onset; assay type: in vivo, mouse
Method: as §1
Cachexia in FIG. 4H and FIG. 6E is the day of life when weight peaks prior to the progressive weight loss which occurs in untreated Ndufs4(KO) animals.

Ndufs4(KO) mice [5] = assay: Point-of-care blood glucose by age; assay type: in vivo, mouse
Source text: (§2) Point-of-care glucose and lactate testing. Blood glucose and lactate measurements were collected using point-of-care meters (Prodigy Autocode® glucose meter, product #51850-3466188, Prodigy® Diabetes Care, LLC, Charlotte, NC; lactate assay meter, product #40828, Nova Biomedical, Waltham, MA) and the tail-prick method, as previously described (Stokes et al. Elife 2021; 10:e65400).

[6] = test system: control and Ndufs4(KO) mice; assay: Glucose tolerance test (GTT) and glucose induced lactate test; assay type: in vivo, mouse; settings: 2 g/kg glucose IP; pexidartinib 300 mg/kg/d in chow, IPI-549 100 mg/kg/d in chow, rapamycin (ABI-009) 8 mg/kg/d IP
Source text: as §2
Glucose tolerance test (GTT) and glucose induced lactate test. Prior to performing the GTT, mice were fasted for 4 hours, from 10 AM-2 PM. The fasting duration was limited to 4 hours given the sensitivity of untreated Ndufs4(KO) animals to hypoglycemia and related sequelae (dysregulation of body temperature, hypoglycemia induced seizure, etc.). For the ABI-009 cohort, mice received their daily ABI-009 treatment at the start of this fasting period. At the end of the 4 hour fast, baseline blood glucose and lactate values were collecting using point-of-care meters and the tail-prick method. Mice were then injected by IP with 2 g/kg dextrose (10 microliters/gram body weight of 200 mg/mL glucose in 1×PBS, 0.2 micron sterile filtered) using an insulin syringe (31-gauge, 6 mm length, 3/10 cc, BD Veo Ultra-Fine needle). Glucose and lactate levels were measured using a minimally invasive tail-prick method at designated timepoints post-injection.

Ndufs4(KO) mice [7] = settings: rapamycin at doses sufficient to attenuate disease; Johnson et al.; cited from earlier work

| Structure (SMILES) | impact on disease (overall) / disease or survival [1] | median survival ([1]; Ndufs4(KO) mice treated from weaning (P21) via chow, untreated 60) [days] | survival [1] | onset of symptoms: forelimb clasping, ataxia, and circling (Ndufs4(KO) mice [2]) | performance on rotarod assay (Ndufs4(KO) mice [3]) | cachexia (Ndufs4(KO) mice [4]) | hypoglycemia (blood glucose) (Ndufs4(KO) mice [5]) | blood lactate spike in response to a glucose bolus [6] | growth and body size (Ndufs4(KO) mice [4]; compared with mTOR inhibition) | developmental weight gain and maximum body size (Ndufs4(KO) mice [7]) |
| --- | --- | --- | --- | --- | --- | --- | --- | --- | --- | --- |
| C[C@H](NC(=O)c1c(N)nn2cccnc12)c1cc2cccc(C#Cc3cnn(C)c3)c2c(=O)n1-c1ccccc1 [IPI-549, 2-amino-N-[(1S)-1-[8-[2-(1-methylpyrazol-4-yl)ethynyl]-1-oxo-2-phenylisoquinolin-3-yl]ethyl]pyrazolo[1,5-a]pyrimidine-3-carboxamide] | attenuated disease | 110 | markedly extended survival | significantly delayed the onset | improved | prevented | prevented | similarly prevented the lactate sequelae | – | – |
| Cc1nc(NC(=O)N2CCC[C@H]2C(N)=O)sc1-c1ccnc(C(C)(C)C(F)(F)F)c1 [BYL719, (2S)-1-N-[4-methyl-5-[2-(1,1,1-trifluoro-2-methylpropan-2-yl)pyridin-4-yl]-1,3-thiazol-2-yl]pyrrolidine-1,2-dicarboxamide] | only modestly impacting disease | – | extension of survival | statistically significant delay in symptom onset | – | – | – | – | extremely small body size; also recorded: severely impaired growth and size | – |
| CO[C@H]1C[C@@H]2CC[C@@H](C)[C@@](O)(O2)C(=O)C(=O)N2CCCC[C@H]2C(=O)O[C@H]([C@H](C)C[C@@H]2CC[C@@H](O)[C@H](OC)C2)CC(=O)[C@H](C)/C=C(\C)[C@@H](O)[C@@H](OC)C(=O)[C@H](C)C[C@H](C)/C=C/C=C/C=C/1C [rapamycin] | – | – | – | – | – | – | – | – | – | significant reductions |

From patent US20230321063A1, “COMPOSITIONS AND METHODS TO REDUCE NEUROINFLAMMATION” (Seattle Children's Hospital d/b/a Seattle Children's …, priority 2020, published 2023)
